Experimental data from ChEMBL document CHEMBL5042509, “Benzophenone Glucosides and B-Type Proanthocyanidin Dimers from Zambian Cassia abbreviata and Their Trypanocidal Activities” (J Nat Prod, 2022).
≈ marks a conversion by molar mass, not a printed value.

Legend:
[1] = tested on: Trypanosoma brucei rhodesiense; experiment: Trypanocidal activity against Trypanosoma brucei rhodesiense assessed as parasite growth inhibition at 50 ug/ml incubated for 3 days by Celltiter-Glo luminescence assay; assay type: functional; design: scale not given: the % may be the effect or the level left; settings: dose 50 µg/ml; time 3 day
[2] = tested on: Trypanosoma brucei brucei; experiment: Trypanocidal activity against Trypanosoma brucei brucei GUTat3.1 assessed as parasite growth inhibition at 50 ug/ml incubated for 3 days by Celltiter-Glo luminescence assay; assay type: functional; design: scale not given: the % may be the effect or the level left; settings: dose 50 µg/ml; time 3 day
[3] = tested on: Trypanosoma brucei gambiense; experiment: Trypanocidal activity against Trypanosoma brucei gambiense IL1922 assessed as parasite growth inhibition at 50 ug/ml incubated for 3 days by Celltiter-Glo luminescence assay; assay type: functional; design: scale not given: the % may be the effect or the level left; settings: dose 50 µg/ml; time 3 day
[4] = tested on: Trypanosoma brucei rhodesiense; experiment: Trypanocidal activity against Trypanosoma brucei rhodesiense IL1501 assessed as parasite growth inhibition at 50 ug/ml incubated for 3 days by Celltiter-Glo luminescence assay; assay type: functional; design: scale not given: the % may be the effect or the level left; settings: dose 50 µg/ml; time 3 day
Trypanosoma congolense [5] = experiment: Trypanocidal activity against Trypanosoma congolense IL3000 assessed as parasite growth inhibition at 50 ug/ml incubated for 3 days by Celltiter-Glo luminescence assay; design: scale not given: the % may be the effect or the level left; settings: dose 50 µg/ml; time 3 day
Trypanosoma evansi [6] = experiment: Trypanocidal activity against Trypanosoma evansi assessed as parasite growth inhibition at 50 ug/ml incubated for 3 days by Celltiter-Glo luminescence assay; assay type: functional; design: scale not given: the % may be the effect or the level left; settings: dose 50 µg/ml; time 3 day
Trypanosoma evansi [7] = experiment: Trypanocidal activity against Trypanosoma evansi assessed as parasite growth inhibition incubated for 3 days by Celltiter-Glo luminescence assay; assay type: functional, organism-based; settings: 72 h
Trypanosoma congolense [8] = experiment: Trypanocidal activity against Trypanosoma congolense IL3000 assessed as parasite growth inhibition incubated for 3 days by Celltiter-Glo luminescence assay; settings: IL3000, 72 h
[9] = tested on: Trypanosoma brucei rhodesiense; experiment: Trypanocidal activity against Trypanosoma brucei rhodesiense assessed as parasite growth inhibition incubated for 3 days by Celltiter-Glo luminescence assay; assay type: functional, organism-based; settings: 72 h
[10] = tested on: Trypanosoma brucei rhodesiense; experiment: Trypanocidal activity against Trypanosoma brucei rhodesiense IL1501 assessed as parasite growth inhibition incubated for 3 days by Celltiter-Glo luminescence assay; assay type: functional, organism-based; settings: IL1501, 72 h
[11] = tested on: Trypanosoma brucei brucei; experiment: Trypanocidal activity against Trypanosoma brucei brucei GUTat3.1 assessed as parasite growth inhibition incubated for 3 days by Celltiter-Glo luminescence assay; assay type: functional, organism-based; settings: GUTat3.1, 72 h
[12] = tested on: Trypanosoma brucei gambiense; experiment: Trypanocidal activity against Trypanosoma brucei gambiense IL1922 assessed as parasite growth inhibition incubated for 3 days by Celltiter-Glo luminescence assay; assay type: functional, organism-based; settings: IL1922, 72 h

SMILES	Activity [1]	Activity [2]	Activity [3]	Activity [4]	Activity (Trypanosoma congolense [5])	Activity (Trypanosoma evansi [6])	IC50 (Trypanosoma evansi [7])	IC50 (Trypanosoma congolense [8])	IC50 [9]	IC50 [10]	IC50 [11]	IC50 [12]
COc1ccc(O[C@@H]2O[C@H](CO)[C@@H](O)[C@H](O)[C@H]2O)cc1OC	8.9%	0%	0%	0%	0%	0%						
Oc1ccc([C@H]2Oc3cc(O)ccc3[C@H](c3c(O)cc(O)c4c3O[C@H](c3cc(O)c(O)c(O)c3)[C@H](O)C4)[C@@H]2O)cc1	99.9%	0%	26.1%	13.65%	99.67%	99.69%	23.2 µg/mL (≈ 41.2 µM)	15.3 µg/mL (≈ 27.3 µM)	3.91 µg/mL (≈ 6.95 µM)			
Cc1cc(O)c(C(=O)c2c(O)cccc2O[C@@H]2O[C@H](CO)[C@@H](O)[C@H](O)[C@H]2O)c(C(=O)O)c1	34.99%	15.74%	5.44%	2.22%	20.76%	0%						
Oc1ccc2c(c1)O[C@H](c1cc(O)c(O)c(O)c1)[C@@H](O)[C@H]2c1c(O)cc(O)c2c1O[C@H](c1ccc(O)c(O)c1)[C@H](O)C2	100.09%	44.09%	83.48%	60.48%	100.13%	100.24%	5.51 µg/mL (≈ 9.52 µM)	7.15 µg/mL (≈ 12.4 µM)	5.42 µg/mL (≈ 9.37 µM)			
COc1cc(O[C@@H]2O[C@H](CO)[C@@H](O)[C@H](O)[C@H]2O[C@@H]2O[C@@H](C)[C@H](OC(C)=O)[C@@H](OC(C)=O)[C@H]2OC(C)=O)cc(OC)c1OC	89.65%	44.45%	38.79%	27.17%	91.43%	0%		40.9 µg/mL (≈ 66.1 µM)	33.3 µg/mL (≈ 53.8 µM)			
Oc1ccc([C@H]2Oc3cc(O)ccc3[C@@H](c3c(O)cc(O)c4c3O[C@H](c3cc(O)c(O)c(O)c3)[C@H](O)C4)[C@@H]2O)cc1	90.97%	48.67%	57.94%	57.75%	69.89%	69.94%	3.32 µg/mL (≈ 5.9 µM)	5.32 µg/mL (≈ 9.46 µM)	4.13 µg/mL (≈ 7.34 µM)			
COc1cc(O[C@@H]2O[C@H](CO)[C@@H](O)[C@H](O)[C@H]2O[C@@H]2O[C@@H](C)[C@H](O)[C@@H](O)[C@H]2O)cc(OC)c1OC	5.42%	0.72%	0.1%	2.26%	0%	0%						
Oc1ccc([C@H]2Oc3cc(O)ccc3[C@@H](c3c(O)cc(O)c4c3O[C@H](c3ccc(O)c(O)c3)[C@@H](O)C4)[C@@H]2O)cc1	88.52%	20.95%	6.42%	6.96%	20.82%	0%						
Oc1ccc([C@H]2Oc3cc(O)ccc3[C@H](c3c(O)cc(O)c4c3O[C@H](c3ccc(O)c(O)c3)[C@H](O)C4)[C@@H]2O)cc1	59.53%	13.03%	10.01%	1.57%	35.26%	0%						
COc1ccc(O[C@@H]2O[C@H](CO)[C@@H](O)[C@H](O)[C@H]2O[C@@H]2OC[C@](O)(CO)[C@H]2O)cc1OC	2.69%	0%	0%	0%	0%	0.6%						
COc1cc(C(=O)O)cc(OC)c1O[C@@H]1O[C@H](CO)[C@@H](O)[C@H](O)[C@H]1O	53.1%	9.64%	14.44%	20.63%	0%	0%						
Oc1ccc2c(c1)O[C@H](c1ccc(O)c(O)c1)[C@@H](O)[C@@H]2c1c(O)cc(O)c2c1O[C@H](c1cc(O)c(O)c(O)c1)[C@H](O)C2	99.93%	10.18%	14.68%	24.11%	72.01%	57.8%	12.2 µg/mL (≈ 21.2 µM)	13.1 µg/mL (≈ 22.6 µM)	10.9 µg/mL (≈ 18.9 µM)			
Cc1cc(O[C@@H]2O[C@H](CO)[C@@H](O)[C@H](O)[C@H]2O)c(C(=O)c2c(O)cccc2O)c(C(=O)O)c1	85.05%	18.9%	7.09%	3.46%		29.06%						
Oc1ccc2c(c1)O[C@H](c1ccc(O)c(O)c1)[C@@H](O)[C@@H]2c1c(O)cc(O)c2c1O[C@H](c1ccc(O)c(O)c1)[C@@H](O)C2	99.6%	20.31%	4.59%	2.52%	36.23%	32.9%						
Oc1ccc([C@H]2Oc3c(c(O)cc(O)c3[C@@H]3c4ccc(O)cc4O[C@H](c4ccc(O)c(O)c4)[C@H]3O)C[C@H]2O)cc1	90.49%	16.43%	10.09%	9.66%	33.1%	0%						
Oc1ccc([C@H]2Oc3cc(O)ccc3[C@@H](c3c(O)cc(O)c4c3O[C@H](c3cc(O)c(O)c(O)c3)[C@@H](O)C4)[C@@H]2O)cc1	99.92%	35.39%	26.67%	20.49%	99.74%	99.77%	14.9 µg/mL (≈ 26.5 µM)	7.53 µg/mL (≈ 13.4 µM)	4.02 µg/mL (≈ 7.15 µM)			
Oc1ccc2c(c1)O[C@H](c1ccc(O)c(O)c1)[C@@H](O)[C@H]2c1c(O)cc(O)c2c1O[C@H](c1ccc(O)c(O)c1)[C@H](O)C2	82.26%	12.85%	9.9%	19.57%	37.33%	4.88%						
COc1cc(O[C@@H]2O[C@H](CO)[C@@H](O)[C@H](O)[C@H]2O[C@@H]2OC[C@](O)(CO)[C@H]2O)cc(OC)c1OC	60.74%	0%	0%	0.73%	0%	0%						
Oc1ccc2c(c1)O[C@H](c1ccc(O)c(O)c1)[C@@H](O)[C@H]2c1c(O)cc(O)c2c1O[C@H](c1cc(O)c(O)c(O)c1)[C@H](O)C2	100.02%	26.31%	73.09%	42.7%	99.96%	100.12%	6.52 µg/mL (≈ 11.3 µM)	9.26 µg/mL (≈ 16 µM)	6.79 µg/mL (≈ 11.7 µM)			
Oc1cc(O)c2c(c1)O[C@H](c1ccc(O)c(O)c1)[C@H](O)C2 [(-)-EPICATECHIN]	74.01%	29.77%	11.49%	8.81%	13.33%	54.44%						
COc1cc(O)cc(OC)c1OC [ANTIAROL]	94.68%	32.18%	43.51%	20.12%	1.68%	0%			24.9 µg/mL (≈ 135 µM)			
Oc1cc(O)c2c(c1)O[C@H](c1ccc(O)c(O)c1)[C@@H](O)C2 [CIANIDANOL]	100.03%	22.82%	9.71%	2.35%	22.03%	66.43%	14.9 µg/mL (≈ 51.3 µM)		47.6 µg/mL (≈ 164 µM)			
N=C(N)c1ccc(/N=N/Nc2ccc(C(=N)N)cc2)cc1 [DIMINAZENE]							0.0033 µg/mL (≈ 0.0117 µM)	0.065 µg/mL (≈ 0.231 µM)	0.081 µg/mL (≈ 0.288 µM)	0.013 µg/mL (≈ 0.0462 µM)	0.02 µg/mL (≈ 0.0711 µM)	0.0066 µg/mL (≈ 0.0235 µM)
NCCC[C@](N)(C(=O)O)C(F)F [EFLORNITHINE, (S)-]							10.4 µg/mL (≈ 57.2 µM)	2.94 µg/mL (≈ 16.1 µM)	6.5 µg/mL (≈ 35.7 µM)	8.38 µg/mL (≈ 46 µM)	7.03 µg/mL (≈ 38.6 µM)	6.68 µg/mL (≈ 36.7 µM)
Oc1cc(O)c2c(c1)O[C@H](c1cc(O)c(O)c(O)c1)[C@H](O)C2 [EPIGALLOCATECHIN]	100.06%	62.43%	85.1%	66.56%	99.94%	99.99%	1.58 µg/mL (≈ 5.16 µM)	2.38 µg/mL (≈ 7.77 µM)	1.62 µg/mL (≈ 5.29 µM)			
CC1CS(=O)(=O)CCN1/N=C/c1ccc([N+](=O)[O-])o1 (centres undefined) [NIFURTIMOX]								0.3 µg/mL (≈ 1.04 µM)	0.42 µg/mL (≈ 1.46 µM)			
N=C(N)c1ccc(OCCCCCOc2ccc(C(=N)N)cc2)cc1 [PENTAMIDINE]							0.00033 µg/mL (≈ 0.000969 µM)	0.11 µg/mL (≈ 0.323 µM)	0.0017 µg/mL (≈ 0.00499 µM)	0.0099 µg/mL (≈ 0.0291 µM)	0.014 µg/mL (≈ 0.0411 µM)	0.0049 µg/mL (≈ 0.0144 µM)
Cc1ccc(C(=O)Nc2ccc(S(=O)(=O)O)c3cc(S(=O)(=O)O)cc(S(=O)(=O)O)c23)cc1NC(=O)c1cccc(NC(=O)Nc2cccc(C(=O)Nc3cc(C(=O)Nc4ccc(S(=O)(=O)O)c5cc(S(=O)(=O)O)cc(S(=O)(=O)O)c45)ccc3C)c2)c1 [SURAMIN]							0.54 µg/mL (≈ 0.416 µM)	10.2 µg/mL (≈ 7.9 µM)	0.094 µg/mL (≈ 0.0725 µM)	0.11 µg/mL (≈ 0.0848 µM)	0.094 µg/mL (≈ 0.0725 µM)	0.092 µg/mL (≈ 0.0709 µM)
